Values quoted from earlier work, collected in patent US20070207193A1, “Novel application of topical anesthetics for modulation of neurogenic tremor” (priority 2006, published 2007).

Experiments:
subthalamic nucleus = conditions: applied centrally in the subcortical areas of the brain
Parkinsonian tremor = conditions: ten patients undergoing stereotactic thalamotomy

Structure (SMILES): CCN(CC)CC(=O)Nc1c(C)cccc1C [lidocaine]
- effect on tremor (subthalamic nucleus): ameliorated tremor
- cases in which microinjection replicated the effects of microstimulation (Parkinsonian tremor): ⅔
